Test results from US20240398771A1, “TREATMENT OF SCLERODERMA AND RAYNAUD'S SYNDROME” (Aisa Pharma, Inc., priority 2023, published 2024).

System: participants with SSc-RP
Test: Average duration of weekly symptomatic RP attacks (minutes)
Type: in vivo, human
Conditions: ITT Part A; for Average duration of weekly symptomatic RP attacks, Baseline, Max / Average duration of weekly symptomatic RP attacks, Baseline, Mean / Average duration of weekly symptomatic RP attacks, Baseline, Median / Average duration of weekly symptomatic RP attacks, Baseline, Min / Average duration of weekly symptomatic RP attacks, Baseline, Q1 / Average duration of weekly symptomatic RP attacks, Baseline, Q3 / Average duration of weekly symptomatic RP attacks, Baseline: last 7 days of screening period
From the text: The relevant metrics measured by this tool daily are: • Study medication • SSc-RP symptoms (Reporting an attack including duration of attack) • Severity of the attack considering all symptoms of the attack e.g. tingling, numbness, pain, color changes (VAS 0-10 cm scale) • Participant's location at the time of the attack (inside home/outside home) • Selecting symptoms experienced during the attack (tingling, numbness, pain, color changes, other) • Pain rating during the attack (11-point Likert scale) • The RCS based on how much difficulty participants had with Raynaud's today, how many attacks the participant had, and how long they lasted. Participants will also be asked to consider how much pain, numbness, or other symptoms the Raynaud's caused in fingers (including painful sores), and how much the Raynaud's alone affected the use of hands today (VAS 0-10 cm scale).
The absolute change in average duration of weekly RP attacks from baseline to the end of each dosing period was and will be a secondary outcome variable. The sponsor-developed participant-informed diary was and will be used to record data. Average duration of weekly RP attacks is defined as the total duration of RP attacks divided by total number of RP attacks within the last 7 days of each dosing period. Total duration of RP attacks during the last 7 days of screening period divided by the total number of RP attacks will be used as baseline for the analysis of all periods. The variable will be calculated similar to frequency data as before.

[1] = Excluding Outliers, Baseline RCS subgroup 1 (Table B-4, stratum not given), last 7 days of dosing period, listed as Cilnidipine 10 mg
[2] = Excluding Outliers, Baseline RCS subgroup 1 (Table B-4, stratum not given), last 7 days of dosing period, listed as Cilnidipine 20 mg
[3] = Excluding Outliers, Baseline RCS subgroup 1 (Table B-4, stratum not given), last 7 days of dosing period, listed as Pooled Cilnidipine
[4] = Excluding Outliers, Baseline RCS subgroup 1 (Table B-4, stratum not given), listed as Cilnidipine 10 mg
[5] = Excluding Outliers, Baseline RCS subgroup 1 (Table B-4, stratum not given), listed as Cilnidipine 20 mg
[6] = Excluding Outliers, Baseline RCS subgroup 1 (Table B-4, stratum not given), listed as Pooled Cilnidipine
[7] = Baseline RCS subgroup 1 (Table B-3, stratum not given), last 7 days of dosing period, listed as Cilnidipine 10 mg
[8] = Baseline RCS subgroup 1 (Table B-3, stratum not given), last 7 days of dosing period, listed as Cilnidipine 20 mg
[9] = Baseline RCS subgroup 1 (Table B-3, stratum not given), last 7 days of dosing period, listed as Pooled Cilnidipine
[10] = Baseline RCS subgroup 1 (Table B-3, stratum not given), listed as Cilnidipine 10 mg

COCCOC(=O)C1=C(C)NC(C)=C(C(=O)OC/C=C/c2ccccc2)C1c1cccc([N+](=O)[O-])c1 (stereo not drawn) [Cilnidipine, 1,4-dihydro-2,6-dimethyl,4-(3-nitrophenyl)-3,5-pyridinedicarboxylic acid 2-methoxyethyl (2 E)-3-phenyl-2-propenyl ester]
Average Duration of weekly symptomatic RP attacks, Max [1]: 31.6, 31.6 minutes | Average Duration of weekly symptomatic RP attacks, Mean [1]: 31.64 min | Average Duration of weekly symptomatic RP attacks, Min [1]: 31.6, 31.6 minutes | Average Duration of weekly symptomatic RP attacks, Q3 [1]: 31.64, 31.64 minutes | Average duration of weekly symptomatic RP attacks, Change from Baseline, Max [1]: −16.7, −16.7 minutes | Average duration of weekly symptomatic RP attacks, Change from Baseline, Min [1]: −16.7, −16.7 minutes | Average duration of weekly symptomatic RP attacks, Change from Baseline, Q1 [1]: −16.74, −16.74 minutes | Average duration of weekly symptomatic RP attacks, Percent Change from Baseline, Max [1]: −34.6, −34.6% | Average Duration of weekly symptomatic RP attacks [2]: 3.0 min | Average Duration of weekly symptomatic RP attacks, Max [2]: 30.5 min | Average Duration of weekly symptomatic RP attacks, Q1 [2]: 3.00 min | Average Duration of weekly symptomatic RP attacks, Q3 [2]: 30.45 min | Average duration of weekly symptomatic RP attacks, Change from Baseline [2]: -10.3 min | Average duration of weekly symptomatic RP attacks, Change from Baseline, Max [2]: 4.1 min | Average duration of weekly symptomatic RP attacks, Change from Baseline, Mean [2]: -3.13 min | Average duration of weekly symptomatic RP attacks, Change from Baseline, Median [2]: -3.13 min | Average duration of weekly symptomatic RP attacks, Change from Baseline, Q1 [2]: -10.33 min | Average duration of weekly symptomatic RP attacks, Change from Baseline, Q3 [2]: 4.07 min | Average duration of weekly symptomatic RP attacks, Percent Change from Baseline, Max [2]: 15.4% | Average duration of weekly symptomatic RP attacks, Percent Change from Baseline, Mean [2]: −31.05% | Average duration of weekly symptomatic RP attacks, Percent Change from Baseline, Median [2]: −31.05% | Average duration of weekly symptomatic RP attacks, Percent Change from Baseline, Min [2]: −77.5% | Average duration of weekly symptomatic RP attacks, Percent Change from Baseline, Q1 [2]: −77.50% | Average duration of weekly symptomatic RP attacks, Percent Change from Baseline, Q3 [2]: 15.41% | Average Duration of weekly symptomatic RP attacks [3]: 3.0 min | Average Duration of weekly symptomatic RP attacks, Max [3]: 31.6 min | Average Duration of weekly symptomatic RP attacks, Q1 [3]: 3.00 min | Average duration of weekly symptomatic RP attacks, Change from Baseline [3]: -16.7 min | Average duration of weekly symptomatic RP attacks, Change from Baseline, Max [3]: 4.1 min | Average duration of weekly symptomatic RP attacks, Change from Baseline, Mean [3]: -7.67 min | Average duration of weekly symptomatic RP attacks, Change from Baseline, Q1 [3]: -16.74 min | Average duration of weekly symptomatic RP attacks, Change from Baseline, Q3 [3]: 4.07 min | Average duration of weekly symptomatic RP attacks, Percent Change from Baseline, Max [3]: 15.4% | Average duration of weekly symptomatic RP attacks, Percent Change from Baseline, Mean [3]: −32.23% | Average duration of weekly symptomatic RP attacks, Percent Change from Baseline, Median [3]: −34.60% | Average duration of weekly symptomatic RP attacks, Percent Change from Baseline, Min [3]: −77.5% | Average duration of weekly symptomatic RP attacks, Percent Change from Baseline, Q1 [3]: −77.50% | Average duration of weekly symptomatic RP attacks, Percent Change from Baseline, Q3 [3]: 15.41% | Average duration of weekly symptomatic RP attacks, Baseline, Max [4]: 48.4, 48.4 minutes | Average duration of weekly symptomatic RP attacks, Baseline, Mean [4]: 48.38 min | Average duration of weekly symptomatic RP attacks, Baseline, Median [4]: 48.38 min | Average duration of weekly symptomatic RP attacks, Baseline, Min [4]: 48.4, 48.4 minutes | Average duration of weekly symptomatic RP attacks, Baseline, Q1 [4]: 48.38, 48.38 minutes | Average duration of weekly symptomatic RP attacks, Baseline, Q3 [4]: 48.38, 48.38 minutes | Average duration of weekly symptomatic RP attacks, Baseline [5]: 13.3 min | Average duration of weekly symptomatic RP attacks, Baseline, Max [5]: 26.4 min | Average duration of weekly symptomatic RP attacks, Baseline, Mean [5]: 19.86 min | Average duration of weekly symptomatic RP attacks, Baseline, Median [5]: 19.86 min | Average duration of weekly symptomatic RP attacks, Baseline, Q1 [5]: 13.33 min | Average duration of weekly symptomatic RP attacks, Baseline, Q3 [5]: 26.39 min | Average duration of weekly symptomatic RP attacks, Baseline [6]: 13.3 min | Average duration of weekly symptomatic RP attacks, Baseline, Max [6]: 48.4 min | Average duration of weekly symptomatic RP attacks, Baseline, Mean [6]: 29.37 min | Average duration of weekly symptomatic RP attacks, Baseline, Median [6]: 26.39 min | Average duration of weekly symptomatic RP attacks, Baseline, Q1 [6]: 13.33 min | Average duration of weekly symptomatic RP attacks, Baseline, Q3 [6]: 48.38 min | Average Duration of weekly symptomatic RP attacks, Max [7]: 31.6, 31.6 minutes | Average Duration of weekly symptomatic RP attacks, Min [7]: 31.6, 31.6 minutes | Average duration of weekly symptomatic RP attacks, Change from Baseline, Max [7]: −16.7, −16.7 minutes | Average duration of weekly symptomatic RP attacks, Change from Baseline, Q1 [7]: −16.74, −16.74 minutes | Average duration of weekly symptomatic RP attacks, Change from Baseline, Q3 [7]: −16.74, −16.74 minutes | Average duration of weekly symptomatic RP attacks, Percent Change from Baseline, Max [7]: −34.6, −34.6% | Average duration of weekly symptomatic RP attacks, Percent Change from Baseline, Min [7]: −34.6, −34.6% | Average duration of weekly symptomatic RP attacks, Percent Change from Baseline, Q3 [7]: −34.60, −34.60% | Average Duration of weekly symptomatic RP attacks [8]: 3.0 min | Average Duration of weekly symptomatic RP attacks, Max [8]: 30.5 min | Average Duration of weekly symptomatic RP attacks, Q1 [8]: 3.00 min | Average Duration of weekly symptomatic RP attacks, Q3 [8]: 30.45 min | Average duration of weekly symptomatic RP attacks, Change from Baseline [8]: -10.3 min | Average duration of weekly symptomatic RP attacks, Change from Baseline, Max [8]: 4.1 min | Average duration of weekly symptomatic RP attacks, Change from Baseline, Q1 [8]: -10.33 min | Average duration of weekly symptomatic RP attacks, Change from Baseline, Q3 [8]: 4.07 min | Average duration of weekly symptomatic RP attacks, Percent Change from Baseline, Max [8]: 15.4% | Average duration of weekly symptomatic RP attacks, Percent Change from Baseline, Min [8]: −77.5% | Average duration of weekly symptomatic RP attacks, Percent Change from Baseline, Q1 [8]: −77.50% | Average Duration of weekly symptomatic RP attacks [9]: 3.0 min | Average Duration of weekly symptomatic RP attacks, Max [9]: 31.6 min | Average Duration of weekly symptomatic RP attacks, Q1 [9]: 3.00 min | Average Duration of weekly symptomatic RP attacks, Q3 [9]: 31.64 min | Average duration of weekly symptomatic RP attacks, Change from Baseline [9]: -16.7 min | Average duration of weekly symptomatic RP attacks, Change from Baseline, Max [9]: 4.1 min | Average duration of weekly symptomatic RP attacks, Change from Baseline, Q1 [9]: -16.74 min | Average duration of weekly symptomatic RP attacks, Change from Baseline, Q3 [9]: 4.07 min | Average duration of weekly symptomatic RP attacks, Percent Change from Baseline, Max [9]: 15.4% | Average duration of weekly symptomatic RP attacks, Percent Change from Baseline, Median [9]: −34.60% | Average duration of weekly symptomatic RP attacks, Percent Change from Baseline, Min [9]: −77.5% | Average duration of weekly symptomatic RP attacks, Percent Change from Baseline, Q1 [9]: −77.50% | Average duration of weekly symptomatic RP attacks, Baseline, Max [10]: 48.4, 48.4 minutes | Average duration of weekly symptomatic RP attacks, Baseline, Mean [10]: 48.38 min | Average duration of weekly symptomatic RP attacks, Baseline, Median [10]: 48.38 min | Average duration of weekly symptomatic RP attacks, Baseline, Min [10]: 48.4, 48.4 minutes | Average duration of weekly symptomatic RP attacks, Baseline, Q1 [10]: 48.38, 48.38 minutes | Average duration of weekly symptomatic RP attacks, Baseline, Q3 [10]: 48.38, 48.38 minutes
